The nature of the series: Adriamycin elution from bone cement in vitro. The series is classed as physicochemical. The settings on record: one or two vials (10 mg adriamycin each) added to a packet of PMMA bone cement (22.5 g powder + 9 ml liquid monomer). The procedure: […] […] They were mixed thoroughly to ensure there are no large adriamycin flakes. […] One gram of this composite elutes 340 micrograms of adriamycin within 24 hours in vitro. The prepared bone cement drug powder was then loaded in sterile syringes (2 g/syringe). To prepare the bone cement putty for implantation and in situ polymerization, 1 ml of Confidence™ monomer was added to this powder and mixed thoroughly 5 minutes prior to implantation.

This is an account of results in patent US20110111061A1, “Compositions and Methods for the Treatment of Skeletal Metastatic Lesions and Fractures” (priority 2008, published 2011).

SMILES strings stand for the structures.

As to `COc1cccc2c1C(=O)c1c(O)c3c(c(O)c1C2=O)C[C@@](O)(C(=O)CO)C[C@@H]3O[C@H]1C[C@H](N)[C@H](O)[C@H](C)O1` [adriamycin], the “elution of adriamycin from PMMA bone cement without filler” value is “negligible elution”.
